Source: US20200148635A1 (priority 2017, published 2020)

Experiments:
[1] = test system: Rhizoctonia solani; assay: In vitro test Rhizoctonia solani (rice sheath blight/potato black scurf), radial growth on Potato Dextrose Agar; format: cell-based; conditions: 168 h, agar plate, 25° C., seven days, read-out: control compared to the untreated check
Protocol: Rhizoctonia solani (Rice Sheath Blight/Potato Black Scurf):
(§1) Compounds were dissolved in 0.3% DMSO and then added to Potato Dextrose Agar medium just prior to dispensing it into Petri dishes. 5 mL medium with compound in the desired concentration was dispensed into 60 mm sterile Petri-plates. After solidification each plate was seeded with 5 mm size mycelial disc taken form periphery of actively growing virulent culture plate. Plates were incubated in growth chambers at 25° C. temperature and 60% relative humidity for seven days and radial growth was measured.

[2] = test system: Alternaria solani; assay: In vitro test Alternaria solani (early blight of tomato/potato), radial growth on Potato Dextrose Agar; format: cell-based; conditions: 168 h, agar plate, 25° C., seven days, read-out: control compared to the untreated check
Protocol: as §1, with “Alternaria solani (early blight of tomato/potato): Compounds” for “Compounds”

[3] = test system: Fusarium culmorum; assay: In vitro test Fusarium culmorum (foot rot of cereals), radial growth on Potato Dextrose Agar; format: cell-based; conditions: 300 ppm, agar plate, 25° C., seven days
Protocol: Fusarium culmorum (Foot Rot of Cereals):
as §1, with “into petri” for “into Petri”

[4] = test system: Phakopsora pachyrhizi; assay: Greenhouse Phakopsora pachyrhizi test in soybean, preventive; format: in vivo; conditions: preventive spray on soybean plants, inoculated one day after treatment with Phakopsora pachyrhizi, read-out: control compared to the untreated check
Protocol: Phakopsora pachyrhizi Test in Soybean
Compounds were dissolved in 2% DMSO/Acetone and then mixed with water to the calibrated spray volume of 50 mL and poured into the spray bottles for further applications.
(§2) To test the preventive activity of compounds, healthy young soybean plants raised in the greenhouse were sprayed with active compound preparation at the stated application rates inside the spray cabinets using hallowcone nozzles. One day after treatment, the plants were inoculated with spore suspension containing 2.1×10^6 Phakopsora pachyrhizi inoculum. The inoculated plants were then kept in greenhouse chamber at 25° C. temperature and 90% relative humidity for disease expression.
(§3) A visual assessment of compound's performance was carried out by rating the disease severity (0-100% scale) on treated plants on 3, 7, 10 and 15 days after application. Efficacy (% control) of the compounds was calculated by comparing the disease rating in the treatment with the one of the untreated control. The sprayed plants were also assessed for compound's plant compatibility by recording symptoms like necrosis, chlorosis and stunting.

[5] = test system: Pyricularia oryzae; assay: microbe, parasite or virus in culture; format: cell-based; conditions: 168 h, read-out: control compared to the untreated check
[6] = test system: Bortytis cinera; assay: Greenhouse Bortytis cinera test in tomato, preventive; format: in vivo; conditions: Solanum lycopersicum, preventive spray on tomato plants, inoculated one day after treatment with Bortytis cinera, read-out: control compared to the untreated check
Protocol: Bortytis cinera Test in Tomato
Compounds were dissolved in 2% DMSO/Acetone and then mixed with water to calibrated spray volume of 50 mL. This 50 mL spray solution was poured into the spray bottles for further applications.
as §2, with “tomato” for “soybean”, “suspension (2% Malt)” for “suspension”, “1.2×10^6 Bortytis cinera” for “2.1×10^6 Phakopsora pachyrhizi”, “18-20°” for “25°”, “90-100%” for “90%”
as §3, with “carried” for “carried out”, “with” for “with the one of the”, “phytotoxic effects” for “plant compatibility”

[7] = test system: Septoria lycopersici; assay: In vitro test Septoria lycopersici (leaf spot of tomato), radial growth on Potato Dextrose Agar; format: cell-based; conditions: 168 h, agar plate, 25° C., seven days, read-out: control compared to the untreated check
Protocol: Septoria lycopersici (Leaf Spot of Tomato):
as §1, with “70%” for “60%”

Row | Structure (SMILES) | inhibition of growth at 300 ppm [1] | inhibition of growth at 300 ppm [2] | control compared to the untreated check [3] | pest or weed control at 500 ppm [4] | inhibition of growth at 300 ppm [5] | pest or weed control at 500 ppm [6] | inhibition of growth at 300 ppm [7]
1 | CCN=S(=O)(c1ccccc1Oc1cc(Cl)c(N=CN(C)CC)cc1C)C(F)(F)F (centres unmarked) [Compound 150] | > 70% | > 70% | 70% | > 70% | – | – | –
2 | CCN(C)C=Nc1cc(C)c(N=S(C)(=O)c2cccc(OC)c2)cc1C (centres unmarked) [Compound 74] | – | – | – | > 70% | > 70% | > 70% | –
3 | CCN=S(C)(=O)c1cccc(Nc2cc(C)c(N=CN(C)CC)cc2C)c1 (centres unmarked) [Compound 140] | > 70% | > 70% | 70% | – | – | – | > 70%
4 | CCN(C)C=Nc1cc(Br)c(N=S(=O)(CCC(C)C)c2cccc(OC)c2)nc1C (centres unmarked) [Compound 77] | – | – | – | > 70% | – | > 70% | –
5 | CCN(C)C=Nc1cc(C)c(S(C)(=O)=NCc2cccc(Cl)c2)cc1Cl (centres unmarked) [Compound 90] | > 70% | > 70% | – | > 70% | – | – | > 70%
6 | CCN(C)C=Nc1cc(C)c(Oc2ccc(S(C)(=O)=NCC3CC3)cc2)cc1Cl (centres unmarked) [Compound 127] | – | > 70% | – | – | > 70% | > 70% | –
7 | CCN(C)C=Nc1cc(Br)c(N=S(C)(=O)c2cccc(OC)c2)nc1C (centres unmarked) [Compound 87] | – | – | – | – | – | > 70% | –
8 | CCN=S(=O)(CCC(C)C)c1cccc(Oc2cc(Cl)c(N=CN(C)CC)cc2C)c1 (centres unmarked) [Compound 25] | – | > 70% | 70% | – | > 70% | – | –
9 | CCN(C)C=Nc1cc(C)c(N=S(C)(=O)c2ccccc2)cc1C (centres unmarked) [Compound 4] | – | – | 70% | – | – | – | –
10 | CCN(C)C=Nc1cc(C)c(Oc2cccc(S(C)(=O)=Nc3ccccc3)c2)cc1C (centres unmarked) [Compound 98] | – | – | – | – | – | > 70% | –
11 | CCN(C)C=Nc1cc(C)c(Oc2cccc(S(C)(=O)=NCC(F)(F)F)c2)cc1C (centres unmarked) [Compound 96] | > 70% | > 70% | – | – | – | > 70% | > 70%
12 | CCN(C)C=Nc1cc(C)c(S(=O)(CC)=NC(=O)c2cccc(OC)c2)cc1Cl (centres unmarked) [Compound 50] | > 70% | > 70% | – | > 70% | – | > 70% | –
13 | CCN(C)C=Nc1cc(C)c(Oc2cccc(S(=O)(=NC(=O)C(F)(F)F)C(C)C)c2)cc1Cl (centres unmarked) [Compound 10] | – | – | 70% | – | – | – | –
14 | CCN(C)C=Nc1cc(C)c(Oc2ccccc2S(=N)(=O)C(F)(F)F)cc1Cl (centres unmarked) [Compound 147] | – | – | 70% | – | – | – | –
15 | CCN(C)C=Nc1cc(C)c(N=S(=O)(CCC(C)C)c2cccc(OC)c2)cc1C (centres unmarked) [Compound 76] | – | – | – | > 70% | > 70% | > 70% | –
16 | CCN(C)C=Nc1cc(C)c(S(=O)(CC(C)C)=Nc2ccsc2)cc1Cl (centres unmarked) [Compound 114] | > 70% | > 70% | – | > 70% | – | – | > 70%
17 | CCN(C)C=Nc1cc(C)c(S(=O)(CC(C)C)=Nc2cc(C(F)(F)F)cc(C(F)(F)F)c2)cc1Cl (centres unmarked) [Compound 85] | – | – | – | > 70% | – | > 70% | –
18 | CCN(C)C=Nc1cc(C)c(Cc2ccc(S(C)(=N)=O)cc2)cc1C (centres unmarked) [Compound 128] | – | > 70% | – | – | > 70% | > 70% | –
19 | CCN(C)C=Nc1cc(C)c(Oc2cccc(S(=O)(=NCC3CC3)C(F)(F)F)c2)cc1Cl (centres unmarked) [Compound 144] | – | – | 70% | – | – | – | –
20 | CCN(C)C=Nc1cc(C)c(S(=O)(CC(C)C)=Nc2ccccc2)cc1Cl (centres unmarked) [Compound 86] | – | – | – | > 70% | > 70% | > 70% | –
21 | CCN(C)C=Nc1cc(C)c(Oc2cccc(S(C)(=O)=NCc3ccccc3)c2)cc1Cl (centres unmarked) [Compound 21] | > 70% | > 70% | – | > 70% | – | > 70% | –
